Data as given in ChEMBL document CHEMBL1201862, “PubChem BioAssay data set” (2004).
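Dose response: 5 concentrations. Exposure: 48 h. Format: 96-well plates. Endpoint: linear interpolation; highest concentration if not reached. Here, GI50 denotes the concentration required for 50% inhibition of growth.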 Calls of active or inactive are those of the source. No stated cut-off is given here; in the data, active = GI50 up to about 1.1 µM and inactive = higher.

Columns and labels:
Assay in all cases: growth of human tumour cells (NCI), 48 h
[1] = test system: OVCAR-5
[2] = test system: UACC-62
[3] = test system: LOX IMVI
[4] = test system: Hs-578T
[5] = test system: SK-MEL-5
[6] = test system: SF-539
[7] = test system: RXF 393
[8] = test system: HT-29
[9] = test system: COLO 205
[10] = test system: NCI-H522
[11] = test system: HOP-92
[12] = test system: NCI/ADR-RES
[13] = test system: SN12C
[14] = test system: IGROV-1
[15] = test system: EKVX
[16] = test system: NCI-H226
[17] = test system: MDA-MB-231
[18] = test system: A549
[19] = test system: SK-MEL-2
[20] = test system: T47D

Compound	GI50 [1]	GI50 [2]	GI50 [3]	GI50 [4]	GI50 [5]	GI50 [6]	GI50 [7]	GI50 [8]	GI50 [9]	GI50 [10]	GI50 [11]	GI50 [12]	GI50 [13]	GI50 [14]	GI50 [15]	GI50 [16]	GI50 [17]	GI50 [18]	GI50 [19]	GI50 [20]
CCOC(=O)CC(=O)Nc1c(C(=O)OCC)sc2nc(SC)nc(Nc3ccc(OC)c(OC)c3)c12	52.6 µM (inactive)	24.6 µM (inactive)	39.4 µM (inactive)	7.73 µM (inactive)	> 100 µM (inactive)	9.86 µM (inactive)	10.7 µM (inactive)	60.1 µM (inactive)	> 100 µM (inactive)	13.6 µM (inactive)	9.25 µM (inactive)	8.77 µM (inactive)	60.3 µM (inactive)	28.7 µM (inactive)	> 100 µM (inactive)	75.2 µM (inactive)	18.5 µM (inactive)	0.36 µM (active)	25.6 µM (inactive)	–
Cc1cn([C@@H]2C[C@H](CO)[C@@H]2O)c(=O)[nH]c1=O	> 100 µM (inactive)	–	> 100 µM (inactive)	> 100 µM (inactive)	> 100 µM (inactive)	> 100 µM (inactive)	> 100 µM (inactive)	> 100 µM (inactive)	> 100 µM (inactive)	> 100 µM (inactive)	> 100 µM (inactive)	> 100 µM (inactive)	> 100 µM (inactive)	> 100 µM (inactive)	> 100 µM (inactive)	> 100 µM (inactive)	> 100 µM (inactive)	> 100 µM (inactive)	> 100 µM (inactive)	–
CN(C)c1ccc2oc(=O)c3ccccc3c2c1	> 100 µM (inactive)	99.8 µM (inactive)	> 100 µM (inactive)	31.7 µM (inactive)	86.5 µM (inactive)	33.1 µM (inactive)	31.5 µM (inactive)	> 100 µM (inactive)	> 100 µM (inactive)	55.8 µM (inactive)	35.2 µM (inactive)	–	> 100 µM (inactive)	51.4 µM (inactive)	20.4 µM (inactive)	46.7 µM (inactive)	17.1 µM (inactive)	> 100 µM (inactive)	33.7 µM (inactive)	> 100 µM (inactive)
CC(=O)OCC1=C2C(OC(=O)C(C)C)CC3(COC(C)=O)OC3/C=C\C3(C)OC3C2OC1=O (stereo unspecified)	> 100 µM (inactive)	> 100 µM (inactive)	> 100 µM (inactive)	> 100 µM (inactive)	> 100 µM (inactive)	> 100 µM (inactive)	> 100 µM (inactive)	> 100 µM (inactive)	> 100 µM (inactive)	–	–	–	> 100 µM (inactive)	> 100 µM (inactive)	> 100 µM (inactive)	> 100 µM (inactive)	> 100 µM (inactive)	> 100 µM (inactive)	> 100 µM (inactive)	> 100 µM (inactive)
CCOC(=O)/C(=C\c1c(C)[nH]c2ccccc12)P(=O)(OCC)OCC	> 100 µM (inactive)	> 100 µM (inactive)	> 100 µM (inactive)	> 100 µM (inactive)	> 100 µM (inactive)	> 100 µM (inactive)	> 100 µM (inactive)	> 100 µM (inactive)	> 100 µM (inactive)	> 100 µM (inactive)	–	> 100 µM (inactive)	> 100 µM (inactive)	> 100 µM (inactive)	> 100 µM (inactive)	> 100 µM (inactive)	> 100 µM (inactive)	> 100 µM (inactive)	–	> 100 µM (inactive)
